Laboratory results from ChEMBL document CHEMBL5058646 (2022).

Tests used:
[1] = target: Serine/threonine-protein kinase pim-1 (Homo sapiens) (UniProt P11309); assay: PIM1 SGC Tm panel (DSF); details: Compound concentration 20.0 uM
[2] = target: Sodium-dependent dopamine transporter (Homo sapiens, UniProt Q01959); assay: GPCRScan assay: inhibition of DAT; set-up: radioligand conc. used [nm] 3.6 – 16.0, parental cells stable HEK
[3] = target: Serine/threonine-protein kinase haspin (Homo sapiens) (UniProt Q8TF76); assay: GSG2 SGC Tm panel (DSF); details: Compound concentration 20.0 uM
[4] = target: Zinc finger and BTB domain-containing protein 21 (Homo sapiens) (UniProt Q9ULJ3); details: SUD4, Compound concentration 1.0 uM
[5] = target: T1, Transcriptional regulator Kaiso (Homo sapiens) (UniProt Q86T24); details: SUD4, Compound concentration 1.0 uM
T1 sequence (whole entry): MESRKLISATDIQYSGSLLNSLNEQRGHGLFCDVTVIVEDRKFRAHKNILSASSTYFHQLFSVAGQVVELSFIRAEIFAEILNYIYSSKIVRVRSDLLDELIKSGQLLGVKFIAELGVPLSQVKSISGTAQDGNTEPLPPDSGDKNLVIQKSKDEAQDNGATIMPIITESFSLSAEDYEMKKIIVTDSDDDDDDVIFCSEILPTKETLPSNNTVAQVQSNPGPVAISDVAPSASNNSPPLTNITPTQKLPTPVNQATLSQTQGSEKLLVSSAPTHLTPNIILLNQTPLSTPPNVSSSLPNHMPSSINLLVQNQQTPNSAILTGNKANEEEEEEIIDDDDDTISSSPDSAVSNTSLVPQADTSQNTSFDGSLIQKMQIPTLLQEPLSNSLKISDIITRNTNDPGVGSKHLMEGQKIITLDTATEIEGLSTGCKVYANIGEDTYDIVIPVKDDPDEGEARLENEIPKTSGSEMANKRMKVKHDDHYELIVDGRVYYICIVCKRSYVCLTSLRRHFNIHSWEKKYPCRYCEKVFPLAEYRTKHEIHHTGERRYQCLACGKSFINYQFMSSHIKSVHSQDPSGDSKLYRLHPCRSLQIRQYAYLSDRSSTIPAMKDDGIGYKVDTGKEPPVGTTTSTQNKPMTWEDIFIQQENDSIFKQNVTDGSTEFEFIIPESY

[6] = target: D(1B) dopamine receptor (Homo sapiens) (UniProt P21918); details: Compound concentration 10.0 uM
[7] = target: Dual specificity mitogen-activated protein kinase kinase 4 (Homo sapiens) (UniProt P45985); assay: MAP2K4 SGC Tm panel (DSF); details: Compound concentration 20.0 uM
[8] = target: Serine/threonine-protein kinase WNK1 (Homo sapiens) (UniProt Q9H4A3); assay: WNK1 SGC Tm panel (DSF); details: Compound concentration 20.0 uM
[9] = target: Serine/threonine-protein kinase B-raf (Homo sapiens) (UniProt P15056); assay: BRAF SGC Tm panel (DSF); details: Compound concentration 20.0 uM
Peregrin (Homo sapiens) = Peregrin (Homo sapiens) (UniProt P55201); assay: BRPF1 SGC Tm panel (DSF); details: Compound concentration 20.0 uM
[10] = target: Dual specificity protein kinase TTK (Homo sapiens) (UniProt P33981); assay: TTK SGC Tm panel (DSF); details: Compound concentration 20.0 uM
[11] = target: Bromodomain-containing protein 4 (Homo sapiens) (UniProt O60885); assay: BRD4 SGC Tm panel (DSF); details: Compound concentration 20.0 uM
[12] = target: Protein archease (Homo sapiens) (UniProt Q8IWT0); details: SUD4, Compound concentration 1.0 uM
[13] = target: Cyclin-dependent kinase-like 1 (Homo sapiens) (UniProt Q00532); assay: CDKL1 SGC Tm panel (DSF); details: Compound concentration 20.0 uM
[14] = target: Aurora kinase B (Homo sapiens) (UniProt Q96GD4); assay: AURKB SGC Tm panel (DSF); details: Compound concentration 20.0 uM
[15] = target: Serine/threonine-protein kinase MRCK alpha (Homo sapiens) (UniProt Q5VT25); assay: CDC42BPA SGC Tm panel (DSF); details: Compound concentration 20.0 uM
[16] = target: Myotonin-protein kinase (Homo sapiens) (UniProt Q09013); assay: DMPK1 SGC Tm panel (DSF); details: Compound concentration 20.0 uM
[17] = target: Beta-1 adrenergic receptor (Homo sapiens) (UniProt P08588); details: Compound concentration 10.0 uM
[18] = target: B-cell lymphoma 6 protein (Homo sapiens, UniProt P41182); details: SUD4, Compound concentration 1.0 uM
[19] = target: Adenosine receptor A2a (Homo sapiens) (UniProt P29274); assay: GPCRScan assay: inhibition of A2A; details: Compound concentration 10.0 uM
[20] = target: 5-hydroxytryptamine receptor 3A (Homo sapiens) (UniProt P46098); details: Compound concentration 10.0 uM
[21] = target: Serine/threonine-protein kinase Nek1 (Homo sapiens) (UniProt Q96PY6); assay: NEK1 SGC Tm panel (DSF); details: Compound concentration 20.0 uM
[22] = target: Muscarinic acetylcholine receptor M1 (Homo sapiens) (UniProt P11229); details: Compound concentration 10.0 uM
Histamine H3 receptor = Histamine H3 receptor (Homo sapiens, UniProt Q9Y5N1); details: Compound concentration 10.0 uM
[23] = target: Dual specificity protein kinase CLK1 (Homo sapiens) (UniProt P49759); assay: CLK1 SGC Tm panel (DSF); details: Compound concentration 20.0 uM
[24] = target: Serine/threonine-protein kinase ULK3 (Homo sapiens) (UniProt Q6PHR2); assay: ULK3 SGC Tm panel (DSF); details: Compound concentration 20.0 uM
[25] = target: Muscarinic acetylcholine receptor M4 (Homo sapiens) (UniProt P08173); details: Compound concentration 10.0 uM
[26] = target: Mitogen-activated protein kinase 8 (Homo sapiens) (UniProt P45983); assay: MAPK8 SGC Tm panel (DSF); details: Compound concentration 20.0 uM
[27] = target: Muscarinic acetylcholine receptor M5 (Homo sapiens) (UniProt P08912); details: Compound concentration 10.0 uM
[28] = target: Ribosomal protein S6 kinase alpha-5 (Homo sapiens) (UniProt O75582); assay: RPS6KA5 SGC Tm panel (DSF); details: Compound concentration 20.0 uM
[29] = target: T1, Transcriptional regulator Kaiso (Homo sapiens); details: SUD4, Compound concentration 1.0 uM; remark: listed apart in the source
Adenosine receptor A1 = Adenosine receptor A1 (Homo sapiens, UniProt P30542); assay: (§1) GPCRScan assay: inhibition of A1; set-up: radioligand conc. used [nm] 5.0, parental cells HEKT
[30] = target: Adenosine receptor A1 (Homo sapiens) (UniProt P30542); assay: as §1; set-up: radioligand conc. used [nm] 5.0, parental cells HEKT; details: Compound concentration 10.0 uM
[31] = target: Calcium/calmodulin-dependent protein kinase type 1G (Homo sapiens) (UniProt Q96NX5); assay: CAMK1G SGC Tm panel (DSF); details: Compound concentration 20.0 uM
[32] = target: Proto-oncogene tyrosine-protein kinase Src (Homo sapiens) (UniProt P12931); assay: SRC SGC Tm panel (DSF); details: Compound concentration 20.0 uM
Proto-oncogene tyrosine-protein kinase Src (Homo sapiens), sequence (P12931 2-536 limits assumed): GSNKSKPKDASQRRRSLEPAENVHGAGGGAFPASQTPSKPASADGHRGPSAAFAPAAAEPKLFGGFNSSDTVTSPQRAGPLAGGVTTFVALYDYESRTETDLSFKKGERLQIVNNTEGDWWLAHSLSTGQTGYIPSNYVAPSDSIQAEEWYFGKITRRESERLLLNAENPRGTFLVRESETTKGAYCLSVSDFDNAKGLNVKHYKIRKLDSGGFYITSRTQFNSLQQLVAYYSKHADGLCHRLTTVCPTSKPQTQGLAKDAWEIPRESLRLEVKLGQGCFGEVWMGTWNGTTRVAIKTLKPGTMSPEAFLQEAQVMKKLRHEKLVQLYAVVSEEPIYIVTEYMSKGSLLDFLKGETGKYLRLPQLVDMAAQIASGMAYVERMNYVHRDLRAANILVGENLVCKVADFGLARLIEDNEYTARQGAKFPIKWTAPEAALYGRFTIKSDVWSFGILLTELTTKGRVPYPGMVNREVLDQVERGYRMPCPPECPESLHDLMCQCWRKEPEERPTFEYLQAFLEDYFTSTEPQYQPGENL

Adenosine receptor A1, sequence (P30542 whole entry): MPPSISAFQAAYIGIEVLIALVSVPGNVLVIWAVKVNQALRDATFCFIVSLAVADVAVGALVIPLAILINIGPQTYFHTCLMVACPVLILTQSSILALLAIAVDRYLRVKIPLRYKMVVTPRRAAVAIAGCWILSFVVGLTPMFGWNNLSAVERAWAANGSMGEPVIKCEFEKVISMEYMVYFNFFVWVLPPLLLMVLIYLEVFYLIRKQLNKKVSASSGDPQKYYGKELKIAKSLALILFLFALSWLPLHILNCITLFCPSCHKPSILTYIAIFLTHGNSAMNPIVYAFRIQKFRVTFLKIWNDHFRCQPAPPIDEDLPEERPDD
Sodium-dependent dopamine transporter, sequence (Q01959 whole entry): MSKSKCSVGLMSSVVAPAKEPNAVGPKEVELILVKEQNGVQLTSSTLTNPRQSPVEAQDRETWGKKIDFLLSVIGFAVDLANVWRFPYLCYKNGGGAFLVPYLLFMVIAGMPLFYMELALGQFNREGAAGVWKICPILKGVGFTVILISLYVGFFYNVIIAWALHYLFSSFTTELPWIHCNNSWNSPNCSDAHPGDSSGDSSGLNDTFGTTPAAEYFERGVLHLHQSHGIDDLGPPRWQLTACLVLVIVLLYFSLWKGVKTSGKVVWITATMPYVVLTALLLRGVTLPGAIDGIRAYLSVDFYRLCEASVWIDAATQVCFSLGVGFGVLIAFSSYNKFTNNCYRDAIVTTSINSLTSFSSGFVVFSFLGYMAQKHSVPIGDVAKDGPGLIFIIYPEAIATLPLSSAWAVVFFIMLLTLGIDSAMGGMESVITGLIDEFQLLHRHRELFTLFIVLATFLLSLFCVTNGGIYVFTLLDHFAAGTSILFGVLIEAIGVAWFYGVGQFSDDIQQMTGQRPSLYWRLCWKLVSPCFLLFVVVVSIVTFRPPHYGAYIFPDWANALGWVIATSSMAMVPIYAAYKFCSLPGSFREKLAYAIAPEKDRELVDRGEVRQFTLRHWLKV
Beta-1 adrenergic receptor (Homo sapiens), sequence (P08588 whole entry, looked up): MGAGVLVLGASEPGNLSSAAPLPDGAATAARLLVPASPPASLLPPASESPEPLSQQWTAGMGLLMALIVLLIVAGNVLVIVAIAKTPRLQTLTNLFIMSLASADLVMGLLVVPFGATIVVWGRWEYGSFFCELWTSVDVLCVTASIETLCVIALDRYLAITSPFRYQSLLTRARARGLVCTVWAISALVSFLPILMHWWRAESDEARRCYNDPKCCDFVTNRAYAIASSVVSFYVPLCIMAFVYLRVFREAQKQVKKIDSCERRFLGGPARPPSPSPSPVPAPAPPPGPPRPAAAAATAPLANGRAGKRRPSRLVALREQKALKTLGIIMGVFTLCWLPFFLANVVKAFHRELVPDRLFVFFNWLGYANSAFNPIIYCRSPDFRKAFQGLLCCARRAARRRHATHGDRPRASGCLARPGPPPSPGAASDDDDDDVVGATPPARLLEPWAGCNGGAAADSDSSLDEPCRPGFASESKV
Zinc finger and BTB domain-containing protein 21 (Homo sapiens), sequence (Q9ULJ3 whole entry, the tested form may be a part): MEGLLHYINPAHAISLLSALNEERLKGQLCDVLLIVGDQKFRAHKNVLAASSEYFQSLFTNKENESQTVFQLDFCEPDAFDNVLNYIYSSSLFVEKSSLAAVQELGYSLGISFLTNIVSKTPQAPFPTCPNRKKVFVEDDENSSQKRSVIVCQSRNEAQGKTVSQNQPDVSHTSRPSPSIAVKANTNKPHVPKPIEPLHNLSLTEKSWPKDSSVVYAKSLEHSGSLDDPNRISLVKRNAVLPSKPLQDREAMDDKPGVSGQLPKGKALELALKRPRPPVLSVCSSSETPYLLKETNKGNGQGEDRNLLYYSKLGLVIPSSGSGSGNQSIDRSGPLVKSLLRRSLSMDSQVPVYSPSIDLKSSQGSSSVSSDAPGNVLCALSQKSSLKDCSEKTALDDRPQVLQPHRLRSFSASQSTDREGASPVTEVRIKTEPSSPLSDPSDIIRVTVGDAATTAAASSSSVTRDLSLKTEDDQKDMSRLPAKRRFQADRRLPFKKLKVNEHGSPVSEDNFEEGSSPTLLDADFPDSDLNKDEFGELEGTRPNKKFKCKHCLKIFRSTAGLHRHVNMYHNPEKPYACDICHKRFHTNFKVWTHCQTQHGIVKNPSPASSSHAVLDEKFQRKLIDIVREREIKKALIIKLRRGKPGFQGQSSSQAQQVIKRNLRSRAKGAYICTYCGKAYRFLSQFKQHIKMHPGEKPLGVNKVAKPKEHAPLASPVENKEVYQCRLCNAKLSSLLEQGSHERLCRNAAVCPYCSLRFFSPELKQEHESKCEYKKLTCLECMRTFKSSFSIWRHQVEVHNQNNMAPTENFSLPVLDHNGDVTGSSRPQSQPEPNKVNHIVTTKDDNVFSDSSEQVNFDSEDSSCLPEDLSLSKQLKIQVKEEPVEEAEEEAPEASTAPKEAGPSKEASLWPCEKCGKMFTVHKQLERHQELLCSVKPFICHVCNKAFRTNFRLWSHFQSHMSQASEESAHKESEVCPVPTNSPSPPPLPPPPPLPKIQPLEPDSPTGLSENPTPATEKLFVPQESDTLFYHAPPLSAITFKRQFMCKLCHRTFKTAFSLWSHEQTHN
Myotonin-protein kinase (Homo sapiens), sequence (Q09013 whole entry): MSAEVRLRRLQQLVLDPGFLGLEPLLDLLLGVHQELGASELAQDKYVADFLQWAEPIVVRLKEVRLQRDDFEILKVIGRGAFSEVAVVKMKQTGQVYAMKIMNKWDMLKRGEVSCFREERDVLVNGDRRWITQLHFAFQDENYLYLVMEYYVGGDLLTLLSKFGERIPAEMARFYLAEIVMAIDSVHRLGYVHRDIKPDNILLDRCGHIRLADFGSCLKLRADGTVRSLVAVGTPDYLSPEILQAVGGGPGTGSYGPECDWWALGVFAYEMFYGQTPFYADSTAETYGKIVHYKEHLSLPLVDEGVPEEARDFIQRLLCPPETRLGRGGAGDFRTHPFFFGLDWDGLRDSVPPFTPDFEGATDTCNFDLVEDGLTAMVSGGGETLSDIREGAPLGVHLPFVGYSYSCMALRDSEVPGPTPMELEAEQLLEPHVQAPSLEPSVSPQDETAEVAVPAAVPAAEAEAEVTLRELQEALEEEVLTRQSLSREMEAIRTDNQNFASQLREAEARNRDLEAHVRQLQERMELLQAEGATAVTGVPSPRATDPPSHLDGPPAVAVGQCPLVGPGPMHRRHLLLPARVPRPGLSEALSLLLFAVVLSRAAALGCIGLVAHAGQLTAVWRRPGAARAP
5-hydroxytryptamine receptor 3A (Homo sapiens), sequence (P46098 whole entry): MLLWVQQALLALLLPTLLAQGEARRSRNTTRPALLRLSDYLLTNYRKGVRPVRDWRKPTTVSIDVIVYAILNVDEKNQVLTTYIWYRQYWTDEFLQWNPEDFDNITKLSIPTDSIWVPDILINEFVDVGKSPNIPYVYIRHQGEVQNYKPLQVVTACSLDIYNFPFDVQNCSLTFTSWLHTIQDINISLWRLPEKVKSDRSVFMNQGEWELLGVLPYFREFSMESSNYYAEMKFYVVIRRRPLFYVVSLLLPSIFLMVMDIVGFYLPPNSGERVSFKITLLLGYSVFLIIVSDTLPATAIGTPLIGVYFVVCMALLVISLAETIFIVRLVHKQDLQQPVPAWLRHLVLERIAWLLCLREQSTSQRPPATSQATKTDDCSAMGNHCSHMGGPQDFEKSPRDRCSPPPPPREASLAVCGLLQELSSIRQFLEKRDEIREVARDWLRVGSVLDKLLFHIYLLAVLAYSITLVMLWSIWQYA
Protein archease (Homo sapiens), sequence (Q8IWT0 whole entry): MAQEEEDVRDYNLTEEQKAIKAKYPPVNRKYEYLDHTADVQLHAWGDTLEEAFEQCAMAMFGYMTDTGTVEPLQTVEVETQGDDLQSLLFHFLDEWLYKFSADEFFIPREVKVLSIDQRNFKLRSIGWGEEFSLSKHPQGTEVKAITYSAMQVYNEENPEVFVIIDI
Dual specificity protein kinase CLK1 (Homo sapiens), sequence (P49759 whole entry, looked up): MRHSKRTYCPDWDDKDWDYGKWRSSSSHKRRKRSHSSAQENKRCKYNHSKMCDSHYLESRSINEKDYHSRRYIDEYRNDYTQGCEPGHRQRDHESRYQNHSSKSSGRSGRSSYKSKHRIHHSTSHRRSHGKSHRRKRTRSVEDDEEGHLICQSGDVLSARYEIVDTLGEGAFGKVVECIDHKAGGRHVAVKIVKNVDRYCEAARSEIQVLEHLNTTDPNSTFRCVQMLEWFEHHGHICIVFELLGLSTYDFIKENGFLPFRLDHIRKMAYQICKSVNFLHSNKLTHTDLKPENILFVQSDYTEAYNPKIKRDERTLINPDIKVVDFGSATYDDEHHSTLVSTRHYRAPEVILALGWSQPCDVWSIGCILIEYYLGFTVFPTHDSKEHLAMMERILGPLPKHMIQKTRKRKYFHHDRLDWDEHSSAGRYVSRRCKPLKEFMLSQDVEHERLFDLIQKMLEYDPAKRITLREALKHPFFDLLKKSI
Adenosine receptor A1 (Homo sapiens), sequence (P30542 whole entry): as the sequence (P30542 whole entry) above

Question: For `C[C@@H]1CN(c2ncc(Cl)c(Nc3ccc4c(c3)n(CCC(C)(C)O)c(=O)n4C)n2)C[C@H](C)C1(F)F`, which Tm [1] is on record?
Answer: Its Tm is 41 °C.

Question: What about the Ki ([2]; read-out: Ki) of the same molecule?
Answer: Its Ki is 5.09 µM.

Question: And the Ki ([2]; read-out: pKi (converted))?
Answer: Its Ki is 4.9 µM.

Question: And the Tm [3]?
Answer: The Tm was 45 °C.

Question: And the LogFC [4]?
Answer: Its LogFC is 0.0103.

Question: What about the LogFC [5] of the same molecule?
Answer: Its LogFC is -0.022.

Question: And the inhibition [6]?
Answer: Its inhibition is 26.2%.

Question: And the Tm [7]?
Answer: The Tm was 41 °C.

Question: What about the Tm [8] of the same molecule?
Answer: Its Tm is 51 °C.

Question: And the Tm [9]?
Answer: The Tm was 39 °C.

Question: What about the Tm (Peregrin (Homo sapiens)) of the same molecule?
Answer: The Tm was 44 °C.

Question: And the Tm [10]?
Answer: The Tm was 46 °C.

Question: What about the Tm [11] of the same molecule?
Answer: Its Tm is 44 °C.

Question: And the LogFC [12]?
Answer: Its LogFC is 0.0264.

Question: And the Tm [13]?
Answer: The Tm was 45 °C.

Question: What about the Tm [14] of the same molecule?
Answer: The Tm was 46 °C.

Question: What about the Tm [15] of the same molecule?
Answer: Its Tm is 43 °C.

Question: And the Tm [16]?
Answer: The Tm was 50 °C.

Question: What about the inhibition [17] of the same molecule?
Answer: Its inhibition is -2.67%.

Question: What about the LogFC [18] of the same molecule?
Answer: Its LogFC is -1.13.

Question: And the inhibition [19]?
Answer: Its inhibition is -3.49%.

Question: And the inhibition [20]?
Answer: The inhibition was -5.81%.

Question: What about the Tm [21] of the same molecule?
Answer: Its Tm is 47 °C.

Question: What about the inhibition [22] of the same molecule?
Answer: Its inhibition is 3.3%.

Question: What about the inhibition (Histamine H3 receptor) of the same molecule?
Answer: The inhibition was 60.7%.

Question: What about the Tm [23] of the same molecule?
Answer: Its Tm is 36 °C.

Question: What about the Tm [24] of the same molecule?
Answer: Its Tm is 44 °C.

Question: And the inhibition [25]?
Answer: The inhibition was -2.86%.

Question: What about the Tm [26] of the same molecule?
Answer: The Tm was 43 °C.

Question: What about the inhibition [27] of the same molecule?
Answer: The inhibition was 20.6%.

Question: What about the Tm [28] of the same molecule?
Answer: The Tm was 37 °C.

Question: And the LogFC [29]?
Answer: Its LogFC is 0.0744.

Question: What about the Ki (Adenosine receptor A1; read-out: Ki) of the same molecule?
Answer: The Ki was 1.63 µM.

Question: What about the Ki (Adenosine receptor A1; read-out: pKi (converted)) of the same molecule?
Answer: Its Ki is 1.1 µM.

Question: What about the inhibition [30] of the same molecule?
Answer: The inhibition was 93.1%.

Question: What about the Tm [31] of the same molecule?
Answer: The Tm was 44 °C.

Question: What about the Tm [32] of the same molecule?
Answer: Its Tm is 53 °C.
